Patent publication US9481667B2, “Salts and solid forms of isoquinolinones and composition comprising and methods of using the same” (Infinity Pharmaceuticals, Inc., priority 2013, dated 2016)
≈ marks a conversion by molar mass, not a printed value. Structures can show the parent of a compound that is named as a salt. Blank lines part the entries; values can stand above or below the molecule they belong to.

Tests used:
Format in all cases: physicochemical
[1] = Storage at 40° C./75% RH (solid-state stability); details: for Storage 40° C./75% RH for 1 week: HPLC Purity / Storage 40° C./75% RH for 1 week: XRPD (D8): 0.5 g scale-up salts; for Stability on storage at 40° C./75% RH: 1 week, solid form by XRPD
Description: The crystalline solids were filtered, dried at ambient conditions, and stored at 40° C./75% RH for 1 week and analyzed by ^1H NMR/IC.
Samples from the screen using amorphous free base Compound 1 were analysed by ^1H-NMR and DSC, and re-analysis by XRPD was also carried out after drying at 50° C./vacuum and storage at 40° C./75% RH (the same sample was dried and stored at elevated humidity).

[2] = Storage at 25° C./93% RH (solid-state stability); details: for Storage 25° C./93% RH for 1 week: HPLC Purity / Storage 25° C./93% RH for 1 week: XRPD (D8): 0.5 g scale-up salts; for Stability on storage at 25° C./93% RH: 1 week, solid form by XRPD
[3] = Gravimetric vapour sorption (GVS); details: for XRPD post GVS (C2): 0.5 g scale-up salts; for GVS Single cycle: hygroscopicity, 0-90% RH; for GVS: moisture content reached on uptake at 40-50% RH: remains stable on sorption up to 90% RH and on desorption down to 10% RH
Description: Sorption isotherms were obtained using a Hiden IGASorp moisture sorption analyser, controlled by CFRSorp software. The sample temperature was maintained at 25° C. by a Huber re-circulating water bath. The humidity was controlled by mixing streams of dry and wet nitrogen, with a total flow rate of 250 ml/min. The relative humidity (RH) was measured by a calibrated Vaisala RH probe (dynamic range of 0-95% RH), located near the sample. The weight change, (mass relaxation) of the sample as a function of % RH was constantly monitored by the microbalance (accuracy ±0.001 mg). Typically 10-20 mg of sample was placed in a tared mesh stainless steel basket under ambient conditions. The sample was loaded and unloaded at 40% RH and 25° C. (typical room conditions). A moisture sorption isotherm was performed as outlined below (2 scans giving 1 complete cycle). The standard isotherm was performed at 25° C. at 10% RH intervals over a 0-90% RH range.
The software uses a least squares minimisation procedure together with a model of the mass relaxation, to predict an asymptotic value. The measured mass relaxation value must be within 5% of that predicted by the software, before the next % RH value is selected. The minimum equilibration time was set to 1 hour and the maximum to 4 hours. The sample was recovered after completion of the isotherm and re-analysed by XRPD.

[4] = Thermodynamic aqueous solubility
[5] = Polymorph screen: maturation (temperature cycling RT/50° C.) in solvents
Description: One of 21 solvents was added to each vial in a number of aliquots (up to 30 volumes), with shaking. All the samples were then placed under maturation between RT to 50° C. (4 hours at each temperature) for 3 days. After maturation the samples were analysed by XRPD. Clear solutions were cooled to −20° C. (freezer). If no precipitation occurred samples were evaporated at RT.
Samples were placed under maturation between RT-50° C. (4 hours cycle) for 3 days. After maturation the samples were analyzed by XRPD. Clear solutions were then cooled to −20° C. (freezer). If no precipitation occurred, samples were evaporated at RT.
Bis-Sulfuric acid salt Form 1 of Compound 1 (ca. 35 mg) was weighed into vials. The corresponding solvents and solvent mixtures were added in portions of (a total of) 5, 10, 20, and 30 volumes at 50° C., with shaking, aiming for clear solutions. After each addition, the vials were allowed to shake for 20 minutes, after which observations were made. Solutions were allowed to evaporate, whereas slurries were set for 8 hour temperature cycling maturation, between RT and 50° C., for 5 days.
The oils obtained by solvent evaporation were used for the maturation screen. Anhydrous solvents (5 volumes; 100 μL) were used in order to minimise the amount of water present. Any solutions were allowed to slowly evaporate, whereas slurries were set for 8 hour temperature cycling maturation, between RT and 50° C. After 24 hours, most oils had not mixed with the solvents, and these were scratched with a spatula, producing slurries. These were matured for a further 24 hours before performing XRPD analysis.
Amorphous free base Compound 1 (ca. 25 mg) was weighed into vials. The selected solvents and solvent mixtures (5 to 20 volumes) were added with stirring. Any solutions were allowed to slowly evaporate, whereas slurries were set for 8 hour temperature cycling maturation, between RT and 50° C., for 2 days.
Crystals were ground in order to analyse them by XRPD. Suspensions were set for temperature cycling for a total of five days after which time XRPD analysis was carried out. […] Similar to the screen in Example 20, these XRPD patterns show slight differences (FIG. 37). However, solids from both screens obtained from the same solvent show a matching XRPD pattern, also supporting that this is a series of isostructural solvates. […]

[6] = 2-Week comparative stability studies; details: 2 weeks; 5° C. (closed); ambient (closed); ambient (closed-exposed to light); ambient (open); 60° C. (closed); RT/75% RH (open); 40° C./75% RH (open)
Description: (closed); (ii) ambient (closed); (iii) ambient (closed-exposed to light); (iv) ambient (open); (v) 60° C. (closed); (vi) RT/75% RH (open); and (vii) 40° C./75% RH (open).

[7] = Dissolution; details: in 15 min at pH 1.2
Description: The dissolution rate for the hydrate was about 80% in 15 min at pH 1.2 and about 20% in 60 min at pH 2.5. The dissolution rate of the bis-sulfuric acid salt was 100% in 15 min at both pH 1.2 and pH 2.5.

[8] = Density and flowability (Hausner ratio, Carr index)
Excerpt: The Hausner ratio and the Carr index are correlated to the flowability of a powder or granular material. […] The flowability of both salts are acceptable for manufacturing.

[9] = Solubility assessment using free base Hydrate Form 2
Description: The best solvent systems (clear solutions) were methanol:anisole 1:1 and DMSO (10 volumes, at RT), dioxane (10 volumes, 50° C.), chloroform (20 volumes, RT). […]

[10] = Stability of Hydrate Form 2 of free base: maturation in water or acetic acid:water; details: 40 hours
Description: Both solids obtained from maturation at 25° C.

[11] = as above; details: 40 hours; remark: listed apart in the source
[12] = listed as Compound 1 Free Base Form 2

Storage 40° C./75% RH for 1 week: HPLC Purity [1]: HPLC Purity: 99.8% Peak Area
Storage 40° C./75% RH for 1 week: XRPD (D8) [1]: XRPD (D8): Unchanged
Stability on storage at 40° C./75% RH [1]: stable
Stability on storage at 40° C./75% RH ([1]; listed as mono-maleic acid salt): stable
Storage 25° C./93% RH for 1 week: HPLC Purity [2]: HPLC Purity: 99.8% Peak Area
Storage 25° C./93% RH for 1 week: XRPD (D8) [2]: XRPD (D8): Unchanged
XRPD post GVS (C2) [3]: Unchanged
GVS Single cycle ([3]; 25° C.): Slightly hygroscopic
XRPD (C2) post Aqueous solubility ([4]; solid after thermodynamic aqueous solubility): FB pattern 2
Salt stability on maturation in solvents ([5]; RT to 50° C., 3 days, Ethanol, 2-Propanol, 1-Propanol, Acetone, THF, 2-Propanol/Water (90/10 v/v), EtOH/Water (90/10 v/v), Acetic acid/Water (25/75 v/v): free base recrystallized): tendency to dissociate
Change of water content (KF) [6]: No significant change of water content
dissolution rate ([7]; listed as Form 1 of mono-maleic acid salt): 100%
Flowability compared to the hydrate [8]: improved flowability
Structure (SMILES): COc1cc(-c2cccc3cc([C@H](C)Nc4nc(N)ncc4C#N)n(-c4ccccc4)c(=O)c23)ccn1 [Form 1 of the maleic acid salt of Compound 1] [(S)-2-amino-4-((1-(8-(2-methoxypyridin-4-yl)-1-oxo-2-phenyl-1,2-dihydroisoquinolin-3-yl)ethyl)amino)pyrimidine-5-carbonitrile]

Storage 40° C./75% RH for 1 week: HPLC Purity [1]: HPLC Purity: Unchanged
Storage 40° C./75% RH for 1 week: XRPD (D8) [1]: XRPD (D8): Unchanged
Stability on storage at 40° C./75% RH [1]: stable
Stability on storage at 40° C./75% RH ([1]; listed as bis-sulfuric acid salts): stable
Storage 25° C./93% RH for 1 week: HPLC Purity [2]: HPLC Purity: Unchanged
Storage 25° C./93% RH for 1 week: XRPD (D8) [2]: XRPD (D8): Unchanged
XRPD post GVS (C2) [3]: Unchanged
GVS Single cycle ([3]; 25° C.): Slightly hygroscopic
Solid form after maturation of slurries ([5]; slurries in 30 volumes of solvent, RT/50° C. cycling, five days (all experiments other than acetic acid/water, methanol, ethanol/water)): did not show any changes
Change of water content (KF) [6]: No significant change of water content
dissolution rate ([7]; listed as Form 1 of bis-sulfuric acid salt monohydrate): 100%
Flowability compared to the hydrate [8]: improved flowability
Structure (SMILES): COc1cc(-c2cccc3cc([C@H](C)Nc4nc(N)ncc4C#N)n(-c4ccccc4)c(=O)c23)ccn1 [Form 1 of the sulfuric acid salt of Compound 1] [(S)-2-amino-4-((1-(8-(2-methoxypyridin-4-yl)-1-oxo-2-phenyl-1,2-dihydroisoquinolin-3-yl)ethyl)amino)pyrimidine-5-carbonitrile]

Stability on storage at 40° C./75% RH [1]: stable
Stability on storage at 40° C./75% RH [1, 12]: Very slight changes after 1 week
Stability on storage at 25° C./93% RH [2]: stable
Stability on storage at 25° C./93% RH [2, 12]: Very slight changes after 1 week
GVS: moisture uptake on loading between 40-50% RH [3]: 1 % w/w
GVS: moisture on loading ([3]; loaded at 40% RH, 25° C., listed as Compound 1 Free Base Form 2): 4.7% w/w moisture on loading. Immediate
GVS: moisture content reached on uptake at 40-50% RH ([3]; listed as Free base Form 2): 5.7 % w/w
solubility thermodynamic ([4]; aqueous, water, thermodynamic from solid, at pH 6.47): 5 µg/mL (≈ 10.2 µM)
solvent volumes giving a clear solution ([9]; 2-methyltetrahydrofuran): 50 volumes
solvent volumes giving a clear solution ([9]; DCM): 100 volumes
solvent volumes giving a clear solution ([9]; DCM:methanol 1:1): 100 volumes
solvent volumes giving a clear solution ([9]; DME): 100 volumes
solvent volumes giving a clear solution ([9]; DMSO, at RT): 10 volumes
solvent volumes giving a clear solution ([9]; THF): 100 volumes
solvent volumes giving a clear solution ([9]; THF:5% water): 50 volumes
solvent volumes giving a clear solution ([9]; acetonitrile/5% water): 100 volumes
solvent volumes giving a clear solution ([9]; chloroform, RT): 20 volumes
solvent volumes giving a clear solution ([9]; dioxane, 50° C.): 10 volumes
solvent volumes giving a clear solution ([9]; ethanol:anisole): 50 volumes
solvent volumes giving a clear solution ([9]; methanol): 100 volumes
solvent volumes giving a clear solution ([9]; methanol:anisole 1:1, at RT): 10 volumes
Solid form (XRPD) after maturation ([10]; acetic acid:water 1:3, 25° C.): stable
Solid form (XRPD) after maturation ([10]; acetic acid:water 1:3, 25° C., listed as Hydrate Form 2 of free base of Compound 1): unchanged Form 2
Solid form (XRPD) after maturation ([10]; pure water, 25° C.): stable
Solid form (XRPD) after maturation ([10]; pure water, 25° C., listed as Hydrate Form 2 of free base of Compound 1): unchanged Form 2
Change of water content (KF) [6]: No significant change of water content
dissolution rate ([7]; listed as Form 2 of free base hydrate): about 80%
Solid form (XRPD) after maturation ([11]; pure water, 90° C., listed as Hydrate Form 2 of free base of Compound 1): Form 2
Structure (SMILES): COc1cc(-c2cccc3cc([C@H](C)Nc4nc(N)ncc4C#N)n(-c4ccccc4)c(=O)c23)ccn1 [Form 2 of the free base of Compound 1, (S)-2-amino-4-((1-(8-(2-methoxypyridin-4-yl)-1-oxo-2-phenyl-1,2-dihydroisoquinolin-3-yl)ethyl)amino)pyrimidine-5-carbonitrile]
Stability on storage at 40° C./75% RH ([1]; listed as Free base Form 2): mainly the same pattern with a few differences
Stability on storage at 25° C./93% RH ([2]; listed as Free base Form 2): mainly the same pattern with a few differences
GVS: moisture content reached on uptake at 40-50% RH [3, 12]: moisture uptake (40-50% RH up to 5.7% w/w)
Solid form (XRPD) after maturation ([11]; acetic acid:water 1:3, 90° C.): some evidence of the acetic acid solvate Form 6 mixed with a majority of Form 2
